How the values were obtained:
[1] = system: CD34+ cells isolated from donor peripheral blood; test: Enhancement of HSCs derived from non-mobilized peripheral blood with compounds of Formula I (Example 33); assay type: cell-based; conditions: normalized fold change days 2 to 7
Protocol: CD34+ cells were isolated from donor peripheral blood. Standard buffy coat separation using ficoll paque was performed. Cells were pelleted and incubated with unlabeled CD64 antibody. Cells then underwent negative depletion using biotinylated CD2, CD3, CD4, CD5, CD8, CD11b, CD14, CD16, CD19, CD20, CD45RA, CD56, CD235 (in some examples CD15, CD25 and other lineage specific antibodies may also be used). Cells which bind these antibodies are depleted using streptavidin beads. The enriched progenitor pool then undergoes cell sorting for CD34+.
Isolated CD34+ cells were incubated in an in vitro culture media of Alpha MEM without phenol red with 10% (v/v) heat inactivated fetal bovine serum (FBS). When testing compounds of Formula I, two internal controls were used: a positive control (+SF conditions) and a baseline control (i.e. basic conditions (“cytokines only”)). The media components and concentrations used for the compounds tested are described in [0563] Table 2. The culture also included an antibiotic solution that includes penicillin, streptomycin, and amphotericin B to avoid contamination. Controls were included because the amount of expansion in samples obtained varies from individual to individual.
Cultures were incubated at […] (controlled by nitrogen) and 5% CO2.
Small molecule components were added separately and fresh each time the media needs to be refreshed. Cytokines can be stored together. Media renewal should occur at least every few days.
On the days indicated one-half of the volume of the cell culture was removed for data analysis (flow cytometry using a BD FACS ARIA II). The culture volume was replenished with fresh media according to the conditions tested. The data reported accounts for the dilution factor introduced in this procedure.
Separate experiments were performed for each compound tested (Compound 1.001-1.023).
(§1) Table 3, below, summarizes the relative expansive effect of Compound 1.001 to 1.023 (sample compounds) at the indicated concentration. The data in Table 3 is reported as the relative expansive effect. The relative expansive effect is a normalized value of the fold changes shown in each of FIG. 1-FIG. 23. It is calculated as shown below: […]

[2] = system: CD34+ cells from cord blood; test: Expansion of cord blood CD34+ cells, seven-day culture (Example 35); assay type: cell-based, human; conditions: normalized fold change days 1 to 7
Protocol: CD34+ cells from cord blood were purchased from STEMCELL Technologies. Primary human CD34+ cells were isolated from cord blood samples using positive immunomagnetic separation techniques. Cells were thawed and gradually brought to room temperature. Samples were washed, then placed in overnight culture in StemSpan with 100 ng/ml each of FLT3L, TPO, SCF, and TL-6. Eighteen to twenty-four hours later (day 1), cells were counted and immunophenotyped (flow cytometry on an Invitrogen Attune N×T cytometer).
Approximately 1000 live cells were plated into each well of 96-well plates; exact cell numbers dispensed per well were quantified with flow cytometry for later calculations.
Media for testing compounds of Formula I was prepared using Alpha MEM without phenol red, 10% (v/v) heat inactivated fetal bovine serum. Culture conditions also included an antibiotic solution that includes penicillin, streptomycin, and amphotericin B to avoid contamination. Additional media components and concentrations used for the compounds tested are described in Table 5.
All incubations for this experiment took place at 3% oxygen (controlled by nitrogen) and 5% CO2. Following seven days of culture, cells from wells were collected and phenotypes were analyzed (flow cytometry on an Invitrogen Attune N×T cytometer).
as §1, with “6” for “3,”, “the screened compounds” for “Compound 1.001 to 1.023 (sample compounds)”, “6” for “3”, “the figures.” for “FIG. 1-FIG. 23.”

CC(C)(C)C(=O)Nc1ccc2c(c1)C(=O)c1ccccc1-2 [Compound 1.005, N-(9-oxo-9H-fluoren-2-yl)pivalamide]
CD90 effect (relative expansive effect on CD34+/CD133+/CD90+ cells) ([1]; sample compound 0.125 μM): +++ (0.55 ≤ x < 0.9)
CD133 effect (relative expansive effect on CD34+/CD133+ cells) ([1]; sample compound 0.125 μM): ++ (0.2 ≤ x < 0.55)
CD90 effect (relative expansive effect on CD34+/CD133+/CD90+ cells) ([2]; sample compound 0.5 μM): ++ (1.44 ≤ x < 1.8)
CD133 effect (relative expansive effect on CD34+/CD133+ cells) ([2]; sample compound 0.5 μM): ++ (1.44 ≤ x < 1.8)

CCOC1c2ccccc2-c2ccc(NC(C)=O)cc21 (stereo not shown) [Compound 1.021, N-(9-ethoxy-9H-fluoren-2-yl)acetamide]
CD90 effect (relative expansive effect on CD34+/CD133+/CD90+ cells) ([1]; sample compound 8 μM): ++ (0.2 ≤ x < 0.55)
CD133 effect (relative expansive effect on CD34+/CD133+ cells) ([1]; sample compound 8 μM): ++ (0.2 ≤ x < 0.55)
CD90 effect (relative expansive effect on CD34+/CD133+/CD90+ cells) ([2]; sample compound 8 μM): + (x < 1.44)
CD133 effect (relative expansive effect on CD34+/CD133+ cells) ([2]; sample compound 8 μM): + (x < 1.44)

CC(C)(C)C(=O)Nc1ccc2c(c1)C(=O)C1CCCC21 (stereo not shown) [Compound 1.001, N-(8-oxo-1,2,3,3a,8,8a-hexahydrocyclopenta[a]inden-6-yl)pivalamide]
CD90 effect (relative expansive effect on CD34+/CD133+/CD90+ cells) ([1]; sample compound 0.5 μM): ++ (0.2 ≤ x < 0.55)
CD133 effect (relative expansive effect on CD34+/CD133+ cells) ([1]; sample compound 0.5 μM): + (x < 0.2)

CCOC1c2ccccc2-c2ccc(NC(=O)C(C)(C)C)cc21 (stereo not shown) [Compound 1.023, N-(9-ethoxy-9H-fluoren-2-yl)pivalamide]
CD90 effect (relative expansive effect on CD34+/CD133+/CD90+ cells) ([1]; sample compound 32 μM): ++ (0.2 ≤ x < 0.55)
CD133 effect (relative expansive effect on CD34+/CD133+ cells) ([1]; sample compound 32 μM): + (x < 0.2)
CD90 effect (relative expansive effect on CD34+/CD133+/CD90+ cells) ([2]; sample compound 8 μM): ++ (1.44 ≤ x < 1.8)
CD133 effect (relative expansive effect on CD34+/CD133+ cells) ([2]; sample compound 8 μM): ++ (1.44 ≤ x < 1.8)

CC(=O)Nc1ccc2c(c1)C(=O)c1ccccc1-2 [Compound 1.009, N-(9-oxo-9H-fluoren-2-yl)acetamide]
CD90 effect (relative expansive effect on CD34+/CD133+/CD90+ cells) ([1]; sample compound 2 μM): +++++ (1.25 ≤ x)
CD133 effect (relative expansive effect on CD34+/CD133+ cells) ([1]; sample compound 2 μM): +++++ (1.25 ≤ x)
CD90 effect (relative expansive effect on CD34+/CD133+/CD90+ cells) ([2]; sample compound 0.5 μM): +++ (1.8 ≤ x < 2.16)
CD133 effect (relative expansive effect on CD34+/CD133+ cells) ([2]; sample compound 0.5 μM): +++ (1.8 ≤ x < 2.16)

CC(C)(C)C(=O)Nc1ccc2c(c1)C(=O)c1c(O)cccc1-2 [Compound 1.006]
CD90 effect (relative expansive effect on CD34+/CD133+/CD90+ cells) ([1]; sample compound 1 μM): ++++ (0.9 ≤ x < 1.25)
CD133 effect (relative expansive effect on CD34+/CD133+ cells) ([1]; sample compound 1 μM): +++ (0.55 ≤ x < 0.9)
CD90 effect (relative expansive effect on CD34+/CD133+/CD90+ cells) ([2]; sample compound 2 μM): ++ (1.44 ≤ x < 1.8)
CD133 effect (relative expansive effect on CD34+/CD133+ cells) ([2]; sample compound 2 μM): ++ (1.44 ≤ x < 1.8)

O=C1c2ccccc2-c2ccc(F)cc21 [Compound 1.020]
CD90 effect (relative expansive effect on CD34+/CD133+/CD90+ cells) ([1]; sample compound 16 μM): ++ (0.2 ≤ x < 0.55)
CD133 effect (relative expansive effect on CD34+/CD133+ cells) ([1]; sample compound 16 μM): ++ (0.2 ≤ x < 0.55)

CC(C)(C)C(=O)Nc1ccc2c(c1)/C(=N/O)c1ccccc1-2 [Compound 1.013, N-(9-(hydroxyimino)-9H-fluoren-2-yl)pivalamide]
CD90 effect (relative expansive effect on CD34+/CD133+/CD90+ cells) ([1]; sample compound 4 μM): +++ (0.55 ≤ x < 0.9)
CD133 effect (relative expansive effect on CD34+/CD133+ cells) ([1]; sample compound 4 μM): +++ (0.55 ≤ x < 0.9)
CD90 effect (relative expansive effect on CD34+/CD133+/CD90+ cells) ([2]; sample compound 2 μM): +++++ (2.52 ≤ x)
CD133 effect (relative expansive effect on CD34+/CD133+ cells) ([2]; sample compound 2 μM): ++++ (2.16 ≤ x < 2.52)

CC(C)(C)C(=O)Nc1ccc2c(c1)C(=O)c1cc(O)ccc1-2 [Compound 1.007, N-(7-hydroxy-9-oxo-9H-fluoren-2-yl)pivalamide]
CD90 effect (relative expansive effect on CD34+/CD133+/CD90+ cells) ([1]; sample compound 4 μM): ++++ (0.9 ≤ x < 1.25)
CD133 effect (relative expansive effect on CD34+/CD133+ cells) ([1]; sample compound 4 μM): +++ (0.55 ≤ x < 0.9)
CD90 effect (relative expansive effect on CD34+/CD133+/CD90+ cells) ([2]; sample compound 2 μM): ++++ (2.16 ≤ x < 2.52)
CD133 effect (relative expansive effect on CD34+/CD133+ cells) ([2]; sample compound 2 μM): ++++ (2.16 ≤ x < 2.52)

NC(=O)Nc1ccc2c(c1)C(=O)c1cc(NC(N)=O)ccc1-2 [Compound 1.011, 1,1′-(9-oxo-9H-fluorene-2,7-diyl)diurea]
CD90 effect (relative expansive effect on CD34+/CD133+/CD90+ cells) ([1]; sample compound 0.125 μM): ++ (0.2 ≤ x < 0.55)
CD133 effect (relative expansive effect on CD34+/CD133+ cells) ([1]; sample compound 0.125 μM): + (x < 0.2)
